Read-outs that look alike come from different tables or passages of the source.
How the values were obtained:
[1] = Drug release study from the in situ gelling system (ISFGSs); assay type: physicochemical
Method: FIG. 29 is a graph showing the results of a dexamethasone release study using 6 wt % Dex and 24 wt % Polymer 80 μL.
FIGS. 30A and 30B are graphs showing the effect of polymer composition on the cumulative release of remdesivir from ISFGSs; 3 wt % 80 and 160 uL-24 wt %.
FIGS. 31A and 31B are graphs showing the effect of polymer composition on the cumulative release of GS-441524 from 80 μL of ISFGSs.
FIGS. 32A and 32B are graphs showing the effect of polymer composition on the cumulative release of GS-441524 from 160 μL of ISFGSs.
FIG. 33A and FIG. 33B are a set of graphs showing the effect of polymer composition and solution volume on the cumulative release of artemisinin from ISFGSs.
FIGS. 37A and 37B are graphs showing the cumulative release of gilteritinib from ISFGSs: Gilteritinib 4 wt % Release 80 μL PLGA 50/50 depots.

[2] = In vitro cumulative release of insulin from ISFGSs; assay type: physicochemical; conditions: for time of continuous insulin release: from ISFGSs
Text: The effect of formulation volume in vitro was also studied.

diabetic rats = experiment: Blood glucose level lowering after subcutaneous injection in diabetic rats; assay type: in vivo; conditions: subcutaneously injected insulin, 5 IU, within 4 h after the injection
Text: The effect of subcutaneously injected insulin as the therapeutic agent component of the subject drug delivery system on diabetic rats was also studied. More specifically, the effect of an insulin depot prepared and delivered in accordance with the teachings of the subject invention on the cumulative release of insulin was studied.

[3] = in vivo; cited from earlier work
[4] = human patients; cited from earlier work
[5] = tested on: feline infectious peritonitis (FIP); conditions: cited from earlier work
[6] = ART838 release study from ISFGSs into PBS; assay type: physicochemical
Text: ISFGS turbidity increased with time and with ART838 loading content, and all loaded ISDs […]. The diffusion of the solvents from the depot in the first week was not sufficient for ART838 to diffuse out of the ISFGS due to the hydrophobic interactions between ART838 and PLGA/PLA polymers. The ISFGS system is able to continually release ART838 for 1 month and the ISD form can be tuned to control ART838 release profiles.
This delayed release profile might be beneficial to potentiate antitumor responses initiated by other drug agents. Therefore it is contemplated that the polymeric formulations of the ISFGS system can be altered to tune the ART838 release curve, aiming to modulate the initiation of release while maintaining the stable release observed here. In addition, the ISFGSs can be used with other dimeric ART analogs or other drug compounds, both for administration and for research purposes, for example to analyze cytotoxicity and bioeffects of the loaded ISFGSs using in vitro cell culture models.

[7] = in mice; cited from earlier work

release from the in situ gelling system (in words) [1]	Compound	time of continuous insulin release [2]	half-life [3]	other results
sustained release	C[C@@H]1CC[C@H]2[C@@H](C)C(=O)O[C@@H]3O[C@@]4(C)CC[C@@H]1[C@]32OO4 [artemisinin]			
	Degludec	7 days		relative insulin release rate (in words) ([2]; comparison between ISFGS formulations): slower
	insulin	7 days	4 to 6 min	blood glucose level (diabetic rats): about 100 mg·dL^−1
sustained release	N#C[C@@]1(c2ccc3c(N)ncnn23)O[C@H](CO)[C@@H](O)[C@H]1O [GS-441524]			half-life [4]: around 24 hours; activity against FIP in cell culture (in words) [5]: equivalent
	CCC(CC)COC(=O)[C@H](C)N[P@](=O)(OC[C@H]1O[C@@](C#N)(c2ccc3c(N)ncnn23)[C@H](O)[C@@H]1O)Oc1ccccc1 [Remdesivir]		53.4 min	
	C[C@@H]1CCC2[C@@H](C)[C@@H](CC(COP(=O)(Oc3ccccc3)Oc3ccccc3)C[C@H]3O[C@@H]4O[C@@]5(C)CCC6[C@H](C)CCC([C@H]3C)[C@]64OO5)O[C@@H]3O[C@@]4(C)CCC1[C@@]23OO4 (stereo partly drawn) [ART838]			time of continual ART838 release from the ISFGS system [6]: 1 month; half-life [7]: 3.19 h
